In patent publication US11505558B1, “Antiviral heterocyclic compounds” (Enanta Pharmaceuticals, Inc., priority 2019, dated 2022):

System: genotype A, "Long" strain RSV
Test: RSV-A assay (CPE, ATPlite readout in Hep-2 cells)
Type: cell-based
Details: human respiratory syncytial virus, HEp-2, Hep-2 cells, genotype A "Long" strain RSV, MOI 0.1; read-out: Human RSV-A (“Long” strain) EC50
Method in brief: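 Hep-2 cells (8,000/well) received 2-fold serial compound dilutions in duplicate and RSV Long strain at MOI 0.1. After 5 days' incubation, cell health was read as ATP by ATPlite luminescence, with virus-only and uninfected controls defining max and minimum CPE; EC50 reported.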

| SMILES | EC50 |
| --- | --- |
| CC(C)(C)NC(=O)[C@@]1(C)COc2c1cc([C@@](O)(CNC(=O)c1cc(OC3CC3)c3ncccc3c1)C(F)(F)F)nc2-c1ccc(F)cc1 [Example 453] | < 200 nM |
| C[C@]1(C(N)=O)COc2c1cc([C@@](O)(CNC(=O)c1ccc3ncc(C4CC4)cc3c1)C(F)(F)F)nc2-c1ccc(F)cc1 [Example 525] | < 200 nM |
| COc1cc(C(=O)NCC(O)(c2cc3c(c(-c4ccc(F)cc4)n2)OC[C@]3(C)CN[C@@H](C)C2CC2)C(F)(F)F)ccc1OCCO (stereo partly shown) [Example 4] | < 200 nM |
| CCc1ncc(-c2cc(C(=O)NC[C@](O)(c3cc4c(c(-c5ccc(F)cc5)n3)OC[C@]4(C)C(N)=O)C(F)(F)F)ccc2OC2CC2)cn1 [Example 131] | < 200 nM |
| Cc1cc(-c2nc([C@@](O)(CNC(=O)c3cc(OC4CC4)c4ncccc4c3)C(F)(F)F)cc3c2OC[C@]3(C)C(=O)NCC(C)(C)O)ccc1F [Example 504] | > 200 nM |
| COc1cc(C(=O)NC[C@](O)(c2cc3c(c(-c4ccc(F)cc4)n2)OC[C@]3(C)C(=O)NCCC(C)(C)O)C(F)(F)F)cc2cccnc12 [Example 494] | < 200 nM |
| Cn1ncc2ccc(C(=O)NC[C@](O)(c3cc4c(c(-c5ccc(F)cc5)n3)OC[C@]4(C)C(N)=O)C(F)(F)F)cc21 [Example 300] | < 200 nM |
| Cc1cnc(-c2cc(C(=O)NC[C@](O)(c3cc4c(c(-c5ccc(F)cc5)n3)OC[C@]4(C)C(N)=O)C(F)(F)F)ccc2OC2CC2)cn1 [Example 115] | < 200 nM |
| Cc1ncccc1-c1ccc(C(=O)NC[C@](O)(c2cc3c(c(-c4ccc(F)cc4)n2)OC[C@]3(C)C(N)=O)C(F)(F)F)cc1OC1CC1 [Example 144] | > 200 nM |
| COc1cc(C(=O)NC[C@](O)(c2cc3c(c(-c4ccc(F)cc4)n2)OC[C@]3(C)C(=O)NC2(C)CC(F)(F)C2)C(F)(F)F)cc2cccnc12 [Example 58] | > 200 nM |
| C[C@]1(C(N)=O)COc2c1cc([C@@](O)(CNC(=O)c1cnn3cccnc13)C(F)(F)F)nc2-c1ccc(F)cc1 [Example 585] | > 200 nM |
| C[C@]1(C(=O)N2CCC(C#N)C2)COc2c1cc([C@@](O)(CNC(=O)c1cc(OC3CC3)c3ncccc3c1)C(F)(F)F)nc2-c1ccc(F)cc1 (stereo partly shown) [Example 555] | < 200 nM |
| C[C@]1(C(N)=O)COc2c1cc([C@@](O)(CNC(=O)c1ccc3nc[nH]c3c1)C(F)(F)F)nc2-c1ccc(F)cc1 [Example 291] | < 200 nM |
| C[C@]1(C(N)=O)COc2c1cc([C@@](O)(CNC(=O)c1n[nH]c3ccncc13)C(F)(F)F)nc2-c1ccc(F)cc1 [Example 293] | > 200 nM |
| COc1cc(C(=O)NC[C@](O)(c2cc3c(c(-c4ccc(F)cc4)n2)OC[C@]3(C)C(=O)NC2CC2)C(F)(F)F)ccc1OCCO [Example 10] | < 200 nM |
| C[C@]1(C(N)=O)COc2c1cc([C@@](O)(CNC(=O)c1ccc3cn[nH]c3c1)C(F)(F)F)nc2-c1ccc(F)cc1 [Example 587] | > 200 nM |
| COc1cc(C(=O)NC[C@](O)(c2cc3c(c(C#Cc4ccc(F)c(Cl)c4)n2)OC[C@]3(C)C(N)=O)C(F)(F)F)ccc1OC1CC1 [Example 512] | > 200 nM |
| C[C@]1(C(N)=O)COc2c1cc([C@@](O)(CNC(=O)c1cc3ccc(F)cc3[nH]1)C(F)(F)F)nc2-c1ccc(F)cc1 [Example 604] | < 200 nM |
| COc1cc(C(=O)NC[C@](O)(c2cc3c(c(C#Cc4cccc(Cl)c4F)n2)OC[C@]3(C)C(N)=O)C(F)(F)F)ccc1OC1CC1 [Example 513] | > 200 nM |
| C[C@]1(C(N)=O)COc2c1cc([C@@](O)(CNC(=O)c1ccc3c(c1)OCC(=O)N3)C(F)(F)F)nc2-c1ccc(F)cc1 [Example 606] | > 200 nM |
| C[C@]1(C(N)=O)COc2c1cc([C@@](O)(CNC(=O)c1ccc3cc[nH]c3n1)C(F)(F)F)nc2-c1ccc(F)cc1 [Example 306] | > 200 nM |
| COc1cc(C(=O)NC[C@](O)(c2cc3c(c(-c4ccc(F)cc4)n2)OC[C@]3(C)CNc2ccccc2)C(F)(F)F)ccc1OCCO [Example 5] | > 200 nM |
| C[C@]1(C(N)=O)COc2c1cc([C@@](O)(CNC(=O)c1ccc3[nH]ccc3c1)C(F)(F)F)nc2-c1ccc(F)cc1 [Example 311] | < 200 nM |
| C[C@]1(C(N)=O)COc2c1cc([C@@](O)(CNC(=O)c1ccccc1)C(F)(F)F)nc2-c1ccc(F)cc1 [Example 308] | > 200 nM |
| CCCNC(=O)[C@@]1(C)COc2c1cc([C@@](O)(CNC(=O)c1cc(OC3CC3)c3ncccc3c1)C(F)(F)F)nc2-c1ccc(F)cc1 [Example 456] | < 200 nM |
| COc1cc(C(=O)NC[C@](O)(c2cc3c(c(-c4ccc(F)cc4)n2)OC[C@]3(C)CNC(=O)c2ccccc2)C(F)(F)F)ccc1OCCO [Example 8] | > 200 nM |
| C[C@]1(C(N)=O)COc2c1cc([C@@](O)(CNC(=O)c1ccc(-c3cnccc3C(F)(F)F)c(OC3CC3)c1)C(F)(F)F)nc2-c1ccc(F)cc1 [Example 149] | > 200 nM |
| Cc1cnccc1-c1cc(C(=O)NC[C@](O)(c2cc3c(c(-c4ccc(F)cc4)n2)OC[C@]3(C)C(N)=O)C(F)(F)F)ccc1OC1CC1 [Example 117] | > 200 nM |

| SMILES | EC50 |
| --- | --- |
| Cc1cccc(-c2cc(C(=O)NC[C@](O)(c3cc4c(c(-c5ccc(F)cc5)n3)OC[C@]4(C)C(N)=O)C(F)(F)F)ccc2OC2CC2)n1 [Example 109] | < 200 nM |
| Cc1ccc(-c2nc([C@@](O)(CNC(=O)c3cc(OC4CC4)c4ncccc4c3)C(F)(F)F)cc3c2OC[C@]3(C)C(N)=O)cc1 [Example 283] | < 200 nM |
| Cc1cnc2c(Nc3ncccn3)cc(C(=O)NC[C@](O)(c3cc4c(c(-c5ccc(F)cc5)n3)OC[C@]4(C)C(N)=O)C(F)(F)F)cc2c1 [Example 346] | < 200 nM |
| COc1ccc(CC(=O)NC[C@](O)(c2cc3c(c(-c4ccc(F)cc4)n2)OC[C@]3(C)C(N)=O)C(F)(F)F)cc1OC [Example 592] | > 200 nM |
| COc1ccc(CC(=O)NC[C@](O)(c2cc3c(c(-c4ccc(F)cc4)n2)OC[C@]3(C)C(N)=O)C(F)(F)F)cc1 [Example 593] | > 200 nM |
| COCCNC(=O)COc1cc(C(=O)NC[C@](O)(c2cc3c(c(-c4ccc(F)cc4)n2)OC[C@]3(C)C(N)=O)C(F)(F)F)cc2cccnc12 [Example 375] | > 200 nM |
| CC(C)(O)CCNC(=O)[C@@]1(C)COc2c1cc([C@@](O)(CNC(=O)c1cc(OC3CC3)c3ncccc3c1)C(F)(F)F)nc2-c1ccc(F)cc1 [Example 483] | < 200 nM |
| C[C@]1(C(N)=O)COc2c1cc([C@@](O)(CNC(=O)c1cc(NC(=O)C3CNC3)c3ncccc3c1)C(F)(F)F)nc2-c1ccc(F)cc1 [Example 401] | > 200 nM |
| C[C@]1(C(N)=O)COc2c1cc([C@@](O)(CNC(=O)c1cc(OC3CC3)c3nc(C(F)(F)F)ccc3c1)C(F)(F)F)nc2-c1ccc(F)cc1 [Example 225] | > 200 nM |
| C[C@]1(C(N)=O)COc2c1cc([C@@](O)(CNC(=O)c1ccc(OC3CC3)c(-c3nccs3)c1)C(F)(F)F)nc2-c1ccc(F)cc1 [Example 125] | < 200 nM |
| C[C@]1(C(=O)NC2(C#N)CC2)COc2c1cc([C@@](O)(CNC(=O)c1cc(OC3CC3)c3ncccc3c1)C(F)(F)F)nc2-c1ccc(F)cc1 [Example 450] | < 200 nM |
| CO[C@@H](C)COc1cc(C(=O)NC[C@](O)(c2cc3c(c(-c4ccc(F)cc4)n2)OC[C@]3(C)C(N)=O)C(F)(F)F)cc2cccnc12 [Example 286] | > 200 nM |
| C[C@]1(C(N)=O)COc2c1cc([C@@](O)(CNC(=O)c1ccc(-c3ccccn3)c(OC3CC3)c1)C(F)(F)F)nc2-c1ccc(F)cc1 [Example 155] | > 200 nM |
| COc1cc(C(=O)NCC(O)(c2cc3c(c(-c4ccc(F)cc4)n2)OC[C@]3(C)CN[C@@H](C)C2CC2)C(F)(F)F)cc2cccnc12 (stereo partly shown) [Example 24] | < 200 nM |
| Cc1cc2cc(C(=O)NC[C@](O)(c3cc4c(c(-c5ccc(F)cc5)n3)OC[C@]4(C)C(N)=O)C(F)(F)F)cc(NC(=O)C3(F)CC3)c2nc1C [Example 662] | < 200 nM |
| Cc1cnc2c(NC(=O)NNC3CC3)cc(C(=O)NC[C@](O)(c3cc4c(c(-c5ccc(F)cc5)n3)OC[C@]4(C)C(N)=O)C(F)(F)F)cc2c1 [Example 631] | < 200 nM |
| C[C@]1(C(N)=O)COc2c1cc([C@@](O)(CNC(=O)c1cc(Oc3ncco3)c3ncccc3c1)C(F)(F)F)nc2-c1ccc(F)cc1 [Example 389] | < 200 nM |
| C[C@]1(C(N)=O)COc2c1cc([C@@](O)(CNC(=O)c1cc(NS(C)(=O)=O)c3ncccc3c1)C(F)(F)F)nc2-c1ccc(F)cc1 [Example 394] | > 200 nM |
| CC1(NC(=O)COc2cc(C(=O)NC[C@](O)(c3cc4c(c(-c5ccc(F)cc5)n3)OC[C@]4(C)C(N)=O)C(F)(F)F)cc3cccnc23)CC1 [Example 370] | > 200 nM |
| Cc1n[nH]c2ccc(C(=O)NC[C@](O)(c3cc4c(c(-c5ccc(F)cc5)n3)OC[C@]4(C)C(N)=O)C(F)(F)F)cc12 [Example 658] | < 200 nM |
| C[C@]1(CNCC2CC2)COc2c1cc([C@@](O)(CNC(=O)c1ccc(OC(F)F)c(O)c1)C(F)(F)F)nc2-c1ccc(F)cc1 [Example 42] | > 200 nM |
| COc1cc(C(=O)NC[C@](O)(c2cc3c(c(-c4ccc(F)cc4)n2)OC[C@]3(C)C(N)=O)C(F)(F)F)ccc1OCCO [Example 11] | < 200 nM |
| C[C@]1(C(N)=O)COc2c1cc([C@@](O)(CNC(=O)c1cc(NS(=O)(=O)C3CC3)c3ncccc3c1)C(F)(F)F)nc2-c1ccc(F)cc1 [Example 395] | > 200 nM |
| CNC(=O)NCCCNC(=O)[C@@]1(C)COc2c1cc([C@@](O)(CNC(=O)c1cc(OC3CC3)c3ncccc3c1)C(F)(F)F)nc2-c1ccc(F)cc1 [Example 462] | > 200 nM |
| COc1cc(C(=O)NC[C@](O)(c2cc3c(c(-c4ccc(F)cc4)n2)OCC3(F)C(N)=O)C(F)(F)F)cn2cc(C3CC3)nc12 (stereo partly shown) [Example 672] | < 200 nM |
| Cn1c(N)nc2cc(C(=O)NC[C@](O)(c3cc4c(c(-c5ccc(F)cc5)n3)OC[C@]4(C)C(N)=O)C(F)(F)F)ccc21 [Example 447] | > 200 nM |
| COc1cc(C(=O)NC[C@](O)(c2cc3c(c(-c4ccc(F)cc4)n2)OC[C@]3(C)COC(=O)NC2CC2)C(F)(F)F)ccc1OCCO (single isomer, unassigned) [Example 7] | > 200 nM |
